Data taken from patent US6565864B2, “Skin care product containing retinoids and phytoestrogens in a dual compartment package” (Unilever Home & Personal Care USA, a division of Conopco, …, priority 2000, dated 2003).
Read-outs that look alike come from different tables or passages of the source.

Legend:
[1] = Stability of retinol in aqueous ethanol in the presence of phytoestrogenic flavonoids (OD 360 nm); format: physicochemical; details: for Retinol degraded: 0.001 %
Procedure: Retinol was dissolved as a 10% solution in aqueous ethanol (1:1 water:ethanol). This solution was diluted to 0.001%, or approximately 30 μM). This solution gave an OD of about 0.35 absorption unit at 360 nm in a 96 well plate spectrophotometer.
Aqueous ethanolic stock solutions of the genistein, daidzein were prepared as 0.1%, 0.01% or 0.001%. To 200 μl of 0.001% retinol solution in a 96 well plate was added 20 μl of the flavonoid (i.e. 1-10 dilution) giving a final flavonoid concentration of 0.01, 0.001 and 0.0001%. The plates were mixed and an initial OD reading was taken at 360 nm. The plates were incubated at room temperature in the dark for up to 2 days and subsequent readings were taken at 8, 24 and 48 hours. The OD readings at these time points were normalized to the 0 time point reading. The retinol stability was expressed as % of retinol (OD reading) at 0 time.
The following tables show the effect of genistein and daidzein on destabilizing retinol. The experiment was done as described in methods section. The OD readings from duplicate measurements were averaged and given here.

[2] = test system: CRABP-2; experiment: CRABP-2 protein expression in human adult fibroblasts (dot blot immunostaining) as a measure of retinoid activity; format: cell-based; details: for CRABP-2 % as Control: control = 100%; for CRABP-2 production: human adult fibroblasts; for Synergy of phytoestrogen with retinoids (in words): soluble form, CRABP-2 in fibroblasts
Procedure: Human adult fibroblasts obtained from sun-protected inner arm of 25-30 year […] volunteer were used in this. Cells were grown in 1:1 DMEM/Hams F12 media containing 10% FBS, maintained at 37° C. in a 5% CO2 atmosphere under normal atmosphere oxygen tension. Third passage adult fibroblasts were grown in DMEM media with 10% FBS in 12-well plates at a seeding density of 2500 cells/ml/well. The cells at 80% confluence were rinsed in serum free and phenol red free (PRF) DMEM media twice. Pre-treatment with phyto-compounds for 4 hours was conducted and then dosed with retinoids and was incubated for 48 hours. After the incubation, the wells were washed twice with 1×PBS and the cell monolayer was harvested in 100 μl cell lysis buffer (contains 1×PBS, 1% Triton X, 0.5% sodium deoxycholate, 0.1% SDS containing protease inhibitor (10 mg/ml PMSF in isopropanol, 10 μl/ml). The suspension was spun at 14000 rpm for 10 minutes, the supernatant collected and an aliquot of this supernatant was used for protein quantification. Protein concentration was determined using Pierce protein kit. The remainder of 100 μl supernatant (cell lysate) was denatured in a mixture of 40 μl sample buffer (NOVEX) and 0.5% Beta mercaptoethanol (BME) and by boiling the sample for 5 minutes.
(b) Detection of Cellular Retinoic Acid Binding Protein 2 (CRABP-2)
These proteins act in regulating the intracellular concentration of retinoids by acting as both storage or shuttle proteins in retinoid metabolism. High or low levels of retinoids cause cell damage, including cell death, therefore regulation of constant levels of retinoids and its binding proteins are very critical for cell survival. The levels of this protein are regulated by the amount of retinoic acid within the cells. Higher cellular levels of retinoids increase the expression of CRABP-2. Therefore, the amount of this protein in the cells, is a measure of the retinoid activity of the cells. Skin cells contain high levels of CRABP-2 both in the epidermis and the dermis. CRABP-2 response to retinoid administration in fibroblasts in vitro is used as a reproducible measure of retinoid bioactivity that predict human skin responses. […] Increase in CRABP-2 is also associated with increased epidermal differentiation, and dermal retinoid action. Therefore, in these studies CRABP-2 expression of fibroblasts was used as a measure of retinoid activity leading to increased epidermal differentiation (skin conditioning and dry skin benefit) and dermal collagen and extracellular matrix synthesis (anti-aging, anti-wrinkling benefits).
To measure the levels of CRABP-2 in the fibroblasts, the equal amount of protein of cell supernatant were loaded onto nitrocellulose blots in a dot blot apparatus as instructed by the manufacturer, and immunostaining was carried out using monoclonal antibodies to CRABP-2 according to standard procedures. The CRABP-2 protein band was visualized in the Dot Blots using the chemiluminescence system obtained from Santa Cruz Biotechnology (SantaCruz, Calif.). The bands in the film were quantitated by dens tometric scanning, the data from the triplicate samples were calculated as % of control and expressed in the following tables as % increase over control (with control as 100%) +/−SD triplicates.

[3] = 100 nM retinoid alone, 48 hours

In the case of `O=c1c(-c2ccc(O)cc2)coc2cc(O)ccc12` [Daidzein], the “Effect of the flavonoid on retinol stability (in words)” value [1] is reported as “marked increases in the instability of retinol”, the “CRABP-2 % as Control” value ([2]; 1 μM phytoestrogen alone) is reported as 513 +/− 227% and the CRABP-2 production ([2]; 1 μM phytoestrogen alone) is reported as 1.49 +/− 0.66. The “Synergy of phytoestrogen with retinoids (in words)” value [2] was “stimulate retinoid activity in a synergistic manner”.
With `O=c1c(-c2ccc(O)cc2)coc2cc(O)cc(O)c12` [Genistein] the “Effect of the flavonoid on retinol stability (in words)” value ([1]; 0.0001-0.01% flavonoid with 0.001% retinol) was “marked increases in the instability of retinol”, the “CRABP-2 stimulation (in words)” value ([2]; 1 μM alone, delivered in DMSO: ethanol) was “stimulated CRABP-2 significantly” and the “CRABP-2 % as Control” value ([2]; 1 μM phytoestrogen alone) was 655 +/− 247%. The CRABP-2 production ([2]; 1 μM phytoestrogen alone) was 1.9 +/− 0.71 and the “Synergy of phytoestrogen with retinoids (in words)” value [2] was “stimulate retinoid activity in a synergistic manner”.
With `CC1=C(/C=C/C(C)=C/C=C/C(C)=C/C(=O)O)C(C)(C)CCC1` [Retinoic acid, reference compound] the “CRABP-2 % as Control” value ([2]; 1 nM retinoid alone) was 335 +/− 162%, the CRABP-2 production ([2]; 1 nM retinoid alone, 48 hours) was 0.97 +/− 0.47 and the “CRABP-2 % as Control” value ([2]; 10 nM retinoid alone) was 428 +/− 101%. The CRABP-2 production ([2]; 10 nM retinoid alone, 48 hours) was 1.24 +/− 0.29.
For `CC1=C(/C=C/C(C)=C/C=C/C(C)=C/CO)C(C)(C)CCC1` [Retinol], the Retinol degraded ([1]; 8 h) was 8%, the Retinol degraded ([1]; 24 h) was 14% and the Retinol degraded ([1]; 48 h) was 19%.
With `CC(=O)OC/C=C(C)/C=C/C=C(C)/C=C/C1=C(C)CCCC1(C)C` [Retinyl Acetate] the “CRABP-2 % as Control” value ([2]; 100 nM retinoid alone) was 209 +/− 118% and the CRABP-2 production [2, 3] was 0.60 +/− 0.32.
For `CCCCC/C=C\C/C=C\CCCCCCCC(=O)OC/C=C(C)/C=C/C=C(C)/C=C/C1=C(C)CCCC1(C)C` [Retinyl Linoleate], the “CRABP-2 % as Control” value ([2]; 100 nM retinoid alone) was 181 +/− 110% and the CRABP-2 production [2, 3] was 0.52 +/− 0.3.
In the case of `CCCCCCCCCCCCCCCC(=O)OC/C=C(C)/C=C/C=C(C)/C=C/C1=C(C)CCCC1(C)C` [Retinyl Palmitate], the “CRABP-2 % as Control” value ([2]; 100 nM retinoid alone) is reported as 434 +/− 177% and the CRABP-2 production [2, 3] is reported as 1.26 +/− 0.51.
